In PubChem BioAssay AID1963826 (Molecular Pharmacology Branch, DTP, NCI, 2024):

Tested on: 926638-142-R-J1-PDC complex spheroid viability
Test: Anticancer human tumor 926638-142-R-J1-PDC patient-derived endometrial carcinoma cell line growth inhibition [POLQ]
Details: for IC50: curve of first compound; for viability, T/C: stronger effect = lower value
Outline: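 Three-cell-type spheroids modelling solid tumor plus stroma served as the readout system; POL inhibitors were tested individually and in combination, concentration ranges set by clinical Cmax where known.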

[1] = second compound 0.0316 µM, first compound 0.0316 µM
[2] = second compound 0.0316 µM, first compound 0.1 µM
[3] = second compound 0.0316 µM, first compound 0.316 µM
[4] = second compound 0.0316 µM, first compound 1 µM
[5] = second compound 0.0316 µM, first compound 3.16 µM
[6] = second compound 0.0316 µM, first compound 10 µM
[7] = second compound 0.1 µM, first compound 0.0316 µM
[8] = second compound 0.1 µM, first compound 0.1 µM
[9] = second compound 0.1 µM, first compound 0.316 µM
[10] = second compound 0.1 µM, first compound 1 µM
[11] = second compound 0.1 µM, first compound 3.16 µM
[12] = second compound 0.1 µM, first compound 10 µM
[13] = second compound 0.316 µM, first compound 0.0316 µM
[14] = second compound 0.316 µM, first compound 0.1 µM
[15] = second compound 0.316 µM, first compound 0.316 µM
[16] = second compound 0.316 µM, first compound 1 µM
[17] = second compound 0.316 µM, first compound 3.16 µM
[18] = second compound 0.316 µM, first compound 10 µM
[19] = second compound 1 µM, first compound 0.0316 µM
[20] = second compound 1 µM, first compound 0.1 µM
[21] = second compound 1 µM, first compound 0.316 µM
[22] = second compound 1 µM, first compound 1 µM
[23] = second compound 1 µM, first compound 3.16 µM
[24] = second compound 1 µM, first compound 10 µM
[25] = second compound 3.16 µM, first compound 0.0316 µM
[26] = second compound 3.16 µM, first compound 0.1 µM
[27] = second compound 3.16 µM, first compound 0.316 µM
[28] = second compound 3.16 µM, first compound 1 µM
[29] = second compound 3.16 µM, first compound 3.16 µM
[30] = second compound 3.16 µM, first compound 10 µM
[31] = second compound 10 µM, first compound 0.0316 µM
[32] = second compound 10 µM, first compound 0.1 µM
[33] = second compound 10 µM, first compound 0.316 µM
[34] = second compound 10 µM, first compound 1 µM
[35] = second compound 10 µM, first compound 3.16 µM
[36] = second compound 10 µM, first compound 10 µM
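Further: spheroids exposed to drugs for one week before readout.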
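Wherever viability, T/C is given: percent viability relative to DMSO vehicle control wells set as 100%.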

CC(C)n1c(=O)n(C)c2cnc3cc(F)c(-c4ccc(OCCCN5CCCCC5)nc4)cc3c21 + Cc1cccc(N(C)C(=O)C2C(O)CCN2c2nc(C)cc(C(F)(F)F)c2C#N)c1
IC50 (second compound 0.0316 µM): > 10 µM | IC50 (second compound 0.1 µM): > 10 µM | IC50 (second compound 0.316 µM): > 10 µM | IC50 (second compound 1 µM): > 10 µM | IC50 (second compound 3.16 µM): > 10 µM | IC50 (second compound 10 µM): 9.83 µM | viability, T/C [1]: 86.5% | viability, T/C [2]: 88.5% | viability, T/C [3]: 87.6% | viability, T/C [4]: 88.9% | viability, T/C [5]: 94.1% | viability, T/C [6]: 62.1% | viability, T/C [7]: 94.6% | viability, T/C [8]: 81.8% | viability, T/C [9]: 103% | viability, T/C [10]: 86.7% | viability, T/C [11]: 79.5% | viability, T/C [12]: 50.9% | viability, T/C [13]: 104% | viability, T/C [14]: 123% | viability, T/C [15]: 89.7% | viability, T/C [16]: 102% | viability, T/C [17]: 93.7% | viability, T/C [18]: 52.3% | viability, T/C [19]: 92.8% | viability, T/C [20]: 88.9% | viability, T/C [21]: 78.5% | viability, T/C [22]: 102% | viability, T/C [23]: 107% | viability, T/C [24]: 72.3% | viability, T/C [25]: 89.5% | viability, T/C [26]: 95.8% | viability, T/C [27]: 92% | viability, T/C [28]: 104% | viability, T/C [29]: 74% | viability, T/C [30]: 65.2% | viability, T/C [31]: 103% | viability, T/C [32]: 89.2% | viability, T/C [33]: 107% | viability, T/C [34]: 87% | viability, T/C [35]: 76.1% | viability, T/C [36]: 49.1%

CC1COCCN1c1cc(C2(S(C)(=N)=O)CC2)nc(-c2ccnc3[nH]ccc23)n1 (stereo unspecified) + Cc1cccc(N(C)C(=O)C2C(O)CCN2c2nc(C)cc(C(F)(F)F)c2C#N)c1
IC50 (second compound 0.0316 µM): 4.55 µM | IC50 (second compound 0.1 µM): 5.51 µM | IC50 (second compound 0.316 µM): 4.7 µM | IC50 (second compound 1 µM): 4.96 µM | IC50 (second compound 3.16 µM): 4.39 µM | IC50 (second compound 10 µM): 4.05 µM | viability, T/C [1]: 117% | viability, T/C [2]: 93.9% | viability, T/C [3]: 93.8% | viability, T/C [4]: 101% | viability, T/C [5]: 59.2% | viability, T/C [6]: 30.1% | viability, T/C [7]: 104% | viability, T/C [8]: 91.2% | viability, T/C [9]: 100% | viability, T/C [10]: 81.2% | viability, T/C [11]: 76.2% | viability, T/C [12]: 25.8% | viability, T/C [13]: 107% | viability, T/C [14]: 90.9% | viability, T/C [15]: 98.6% | viability, T/C [16]: 79.5% | viability, T/C [17]: 60.7% | viability, T/C [18]: 29.7% | viability, T/C [19]: 117% | viability, T/C [20]: 101% | viability, T/C [21]: 96.4% | viability, T/C [22]: 110% | viability, T/C [23]: 60.5% | viability, T/C [24]: 33.6% | viability, T/C [25]: 91.6% | viability, T/C [26]: 117% | viability, T/C [27]: 95.2% | viability, T/C [28]: 103% | viability, T/C [29]: 59% | viability, T/C [30]: 27.4% | viability, T/C [31]: 80.4% | viability, T/C [32]: 112% | viability, T/C [33]: 87.8% | viability, T/C [34]: 89% | viability, T/C [35]: 56.7% | viability, T/C [36]: 25.5%

CCCS(=O)(=O)Nc1ccc(F)c(C(=O)c2c[nH]c3ncc(-c4ccc(Cl)cc4)cc23)c1F + Cc1cccc(N(C)C(=O)C2C(O)CCN2c2nc(C)cc(C(F)(F)F)c2C#N)c1
IC50 (second compound 0.0316 µM): 9.51 µM | IC50 (second compound 0.1 µM): > 10 µM | IC50 (second compound 0.316 µM): > 10 µM | IC50 (second compound 1 µM): > 10 µM | IC50 (second compound 3.16 µM): 9.33 µM | IC50 (second compound 10 µM): > 10 µM | viability, T/C [1]: 110% | viability, T/C [2]: 95.8% | viability, T/C [3]: 97.4% | viability, T/C [4]: 103% | viability, T/C [5]: 102% | viability, T/C [6]: 47.6% | viability, T/C [7]: 117% | viability, T/C [8]: 103% | viability, T/C [9]: 96.2% | viability, T/C [10]: 96.9% | viability, T/C [11]: 86.4% | viability, T/C [12]: 58.2% | viability, T/C [13]: 114% | viability, T/C [14]: 123% | viability, T/C [15]: 94.2% | viability, T/C [16]: 97% | viability, T/C [17]: 80.4% | viability, T/C [18]: 55.1% | viability, T/C [19]: 95.1% | viability, T/C [20]: 99.4% | viability, T/C [21]: 89% | viability, T/C [22]: 110% | viability, T/C [23]: 86% | viability, T/C [24]: 49.8% | viability, T/C [25]: 104% | viability, T/C [26]: 114% | viability, T/C [27]: 87.1% | viability, T/C [28]: 88.9% | viability, T/C [29]: 94.7% | viability, T/C [30]: 46.7% | viability, T/C [31]: 97.7% | viability, T/C [32]: 94.1% | viability, T/C [33]: 77.1% | viability, T/C [34]: 76.4% | viability, T/C [35]: 89.4% | viability, T/C [36]: 56%
